Source: patent US20050239751A1, “Heterocyclic anti-viral compounds comprising metabolizable moieties and their uses” (Rigel Pharmaceuticals, Inc., priority 2004, published 2005)
Like-named read-outs stand apart in the source and are kept apart here.

Experiments:
[1] = tested on: HCV NS5A protein in 9-13 replicon cells; assay: Replicon quantitative Western blot assay (HEPC_REPLICON-ICWESTERN); type: cell-based; settings: Hepatitis C virus; Table 14; read-out: HEPC_REPLICON-ICWESTERN Result Value
Method: Alternatively, the inhibitory activity of the metabolically active agents of the prodrugs can be confirmed using a quantitative Western immunoblot assay utilizing antibodies specific for HCV non-structural proteins, such as NS3, NS4A NS5A and NS5B. In one embodiment of this assay, replicon cells are treated with varying concentrations of test prodrug to determine the concentration of the metabolically active agent of the test prodrug that yields a 50% reduction in the amount of a non-structural protein produced as compared to a control sample (IC50). A single non-structural protein may be quantified or multiple non-structural proteins may be quantified. Antibodies suitable for carrying out such immunoblot assays are available commercially (e.g., from BIODESIGN International, Saco, Me.).
Certain prodrugs of the invention, which may inhibit HCV translation or replication prior to metablism and/or are metabolized into active agents, were also tested for their ability to inhibit HCV replication using a quantitative Western blot analysis with antibodies specific for the HCV NS5A or other non-structural proteins. Actively dividing 9-13 replicon cells were seeded into 6-well plates at a density of 1×10^5 cells/well in a volume of 2 ml/well and incubated at 37° C. and 5% CO2 for 24 hours. Various concentrations of test prodrugs (in a volume of 10 ul) were added to the wells and the cells incubated for another 48 hours. Protein samples were prepared from the cultured cells, resolved on a SDS-PAGE gel and transferred to a nitrocellulose membrane. The membrane was blocked with 5% non-fat milk in PBS for 1 hour at room temperature. Primary antibody (anti NS5A antibody; BIODESIGN International, Saco, Me.) incubation was performed for 1 hour at room temperature, after which the membrane was washed 3 times (for 15 min per time) with PBST (PBS plus 0.1% Tween 20). Horseradish peroxidase conjugated secondary antibody incubation was performed for 1 hour at room temperature and the membrane was washed 3 times (for 15 min per time) with PBST. The membrane was then soaked in substrate solution (Pierce) and exposed to a film or quantified using an imager. In this assay, the amount of test prodrug that is believed to be transformed into an active agent under the given conditions that yielded a 50% reduction in the amount of NS5A protein translated as compared to a control sample (IC50) was determined.

[2] = tested on: HCV replicon in 5-2 Luc replicon-comprising cells; assay: HCV replicon assay (luciferase; HEPC_REPLICON-LUC); type: cell-based, Hepatitis C virus; settings: Hepatitis C virus
Excerpt: In one embodiment, the inhibitory activity of the metabolically active agent of the prodrug can be confirmed in a replicon assay that assesses the ability of a test compound to block or inhibit HCV replication in replicon cells. One example of a suitable replicon assay is the liver cell-line Huh 7-based replicon assay described in Lohmann et al., 1999, Science 285:110-113. A specific example of this replicon assay which utilizes luciferase translation is provided in the Examples Section. In one embodiment of this assay, the amount of test prodrug that yields a 50% reduction in translation as compared to a control cell (IC50) may be determined.
The inhibitory activity of certain prodrugs of the invention, which may inhibit HCV translation or replication prior to metablism and/or are metabolized into active agents, was confirmed using an HCV replicon assay. The HCV replicon can include such features as the HCV 5′ untranslated region including the HCV IRES, the HCV 3′ untranslated region, selected HCV genes encoding HCV polypeptides, selectable markers, and a reporter gene such as luciferase, GFP, etc. In the assay, actively dividing 5-2 Luc replicon-comprising cells (obtained from Ralf Bartenschlager; see Lohmann et al., 1999, Science 285:110-113) were seeded at a density of between about 5,000 and 7,500 cells/well onto 96 well plates (about 90 µl of cells per well) and incubated at 37° C. and 5% CO2 for 24 hours. Then, the test prodrug (in a volume of about 10 PI) was added to the wells at various concentrations and the cells were incubated for an additional 24-48 hours before luciferase assay. The media was aspirated from each well and Bright-Glo (Promega, Madison, WI) luciferase assay reagents were added to each well according to the manufacturer's instructions. Briefly, the BrightGlo reagent was diluted 1:1 with PBS and 100 µl of diluted reagent was added to each well. After 5 min of incubation at room temperature, luciferin emission was quantified with a luminometer. In this assay, the amount of test prodrug that yielded a 50% reduction in luciferase emission (IC50) was determined. This IC50 value may represent the antiviral activity of the prodrug itself, the activity of prodrug transformed into its active metabolized form, or a combination of the two.
In TABLES 3 through 12, a value of “+” indicates an IC50 of 10 μM or less in the specified assay; a value of “−” indicates an IC50 of greater than 10 μM in the specified assay.

[3] = Biliary excretion in rats after oral administration; type: in vivo; settings: rat, four hours after oral administration
Method: Evidence for the conversion of prodrug 1107 to its active metabolite in rat liver was obtained by measuring prodrug and active compound concentrations in bile fluid.
(§1) Compounds were dissolved in a mixture of TPGS:PEG:PG (35%:60%:5%) and diluted with saline for oral administration. Typically, 6.5mg of compound was dissolved in 1 ml of the organic mixture and added to 5.5 ml of saline. Animals were dosed with 5 ml/kg of this mixture to give a typical dose of 5 mg/kg. All animal studies were conducted in male SpraqueDawley rats and the animals were fasted overnight prior to dose administration. Surgeries (to implant blood sampling cannula) were conducted at least two days prior to the study. Blood samples (100 μl) were collected using sodium heparin as anticoagulant and added to 300 μl of a mixture of acetate buffer (100 mM, pH=6.5):acetonitrile:ethanol:DMSO (2:1:1:2 v/v). Samples were centrifuged and the supernatant was analyzed by LC/MS/MS using the procedures outlined above. Standard were prepared similarly using fresh rat blood from naive animals.
Esterases are present in various tissues in the liver and may further degrade the active parent compound prior to reaching the HepC virus that is localized within hepatocyte cells. Experiments with radio-labeled the active parent compound indicate that the active parent compound is excreted from the body through bile (data not shown). […]

[4] = Rat pharmacokinetic study, portal and jugular vein cannula, oral administration; type: in vivo
Method: Pharamcokinetic studies were conducted in rats containing surgically implanted cannula in the portal and jugular veins. Blood samples were taken simultaneously from both cannula at various times after oral administration of the compounds. In the portal vein, the prodrugs are detected and, in some cases, the active compound, A-B-C-NHCOCHX2, has also been detected. The presence of active compound in the portal vein samples has been attributed to metabolism of the prodrug in transit through the gut wall. […] In the jugular samples, many, but not all, of the prodrugs have been detected in systemic circulation, depending on the hepatic extraction ratio of the prodrug.
as §1, with “Blood samples (100 μl) were collected using sodium heparin as anticoagulant and added to 300 μl of a mixture of acetate buffer (100 mM, pH=6.5):acetonitrile:ethanol:DMSO (2:1:1:2 v/v).” left out, “Standard were prepared similarly using fresh rat blood from naive animals.” left out

[5] = Table 14, read-out: HEPC_REPLICON-LUC Result Value

Compound | IC50 [1] [µM] | IC50 [2, 5] [µM] | also measured
CC(C)(C)OC(=O)N1CCN(c2ccc(CCCN(C(=O)C(Cl)Cl)c3ccnc(-c4cc(-c5c(Cl)cccc5Cl)no4)c3)cc2)CC1 [Cpd. 1039, tert-Butyl 4-(4-(3-(2,2-Dichloro-N-(2-(3-(2,6-dichlorophenyl)isoxazol-5-yl)pyridin-4yl)acetamido)propyl)phenyl)piperazine-1-carboxylate] | > 20 |  | 
CC(C)(C)OC(=O)c1ccc(CCCN(C(=O)C(Cl)Cl)c2ccnc(-c3cc(-c4c(Cl)cccc4Cl)no3)c2)cc1 [Cpd. 1040, tert-Butyl 4-(3-(2,2-Dichloro-N-(2-(3-(2,6-dichlorophenyl)isoxazol-5-yl)pyridin-4-yl)acetamido)propyl)benzoate] | 1 to 20 |  | 
CC(C)(C)OP(=O)(Cc1ccc(CCCN(C(=O)C(Cl)Cl)c2ccnc(-c3cc(-c4c(Cl)cccc4Cl)no3)c2)cc1)OC(C)(C)C [Cpd. 1041, Di-tert-Butyl 4-(3-(2,2-Dichloro-N-(2-(3-(2,6-dichlorophenyl)isoxazol-5-yl)pyridin-4-yl)acetamido)propyl)benzylphosphonate] | 1 to 20 | 1 to 20 | 
O=C(C(Cl)Cl)N(CCCc1ccc(CP(=O)(O)O)cc1)c1ccnc(-c2cc(-c3c(Cl)cccc3Cl)no2)c1 [Cpd. 1042, 4-(3-(2,2-Dichloro-N-(2-(3-(2,6-dichlorophenyl)isoxazol-5-yl)pyridin-4-yl)acetamido)propyl)benzylphosphonic Acid] | > 20 |  | 
O=C(C(Cl)Cl)N(CCCc1ccc(N2CCNCC2)cc1)c1ccnc(-c2cc(-c3c(Cl)cccc3Cl)no2)c1 [Cpd. 1043, 2,2-Dichloro-N-(2-(3-(2,6-dichlorophenyl)isoxazol-5-yl)pyridin-4-yl)-N-(3-(4-(piperazin-1-yl)phenyl)propyl)acetamide] | 1 to 20 | 1 to 20 | 
O=C(c1cccc(-c2cc(-c3c(Cl)cccc3Cl)no2)c1)N(Cc1oc(=O)oc1COC1CC(O)C(O)C(CO)O1)C(=O)C(Cl)Cl (stereo not shown) [Cpd. 1044] | < 1 | < 1 | 
CC(C)(C)c1oc(=O)oc1CN(C(=O)C(Cl)Cl)c1ccnc(-c2cc(-c3c(Cl)cccc3Cl)no2)c1 [Cpd. 1107, 2,2-dichloro-N-[2′-[3′-(2′,6′-dichlorophenyl)-5′-isoxazoyl](4-pyridyl)]-N-[(5-t-butyl-1,3-dioxolene-2-one4-yl)methylene] acetamide] |  |  | IC50 ([2]; Tables 3-12, 50% reduction in luciferase emission, 5-2 Luc replicon cells, read-out: Replicon (IC50)): ≤ 10 µM; Prodrug and resultant active compound levels in bile fluid [3]: High levels; Cmax ([4]; Sprague-Dawley, rat, whole blood, typical dose of 5 mg/kg, male rats, read-out: Rat PK Cmax, Prodrug): 510 ng/mL; Rat PK Hepatic extraction ratio of Prodrug ([4]; portal and jugular vein sampling): 0.97
